Test results published in ChEMBL document CHEMBL1201862, “PubChem BioAssay data set” (2004).
Activity calls are given as the source filed them.

How the values were obtained:
[1] = target: Cysteine protease ATG4B (Homo sapiens, UniProt Q9Y4P1); format: functional;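 note: Fluorescence-based dose-response confirmation assay measuring inhibition of ATG4B activity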
[2] = target: Phospholipase A2 (Homo sapiens, UniProt P04054); format: functional;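 note: confirmatory dose-response counterscreen on phospholipase A2, testing hits that came from an ultra-high-throughput screen for ATG4B inhibitors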
[3] = target: DNA (cytosine-5)-methyltransferase 1 (Homo sapiens, UniProt P26358); assay: inhibition of DNA methylation by DNMT1 – biochemical, fluorescent molecular beacon, confirmation (AID 602386); format: functional
[4] = target: T1, Carboxy-terminal domain RNA polymerase II polypeptide A small phosphatase 1 (Homo sapiens, UniProt Q9GZU7); assay: CTDSP1 inhibitors, concentration-response, biochemical, absorbance readout, ultra-high-throughput screen actives (AID 540297); format: functional
T1 sequence (Q9GZU7 whole entry): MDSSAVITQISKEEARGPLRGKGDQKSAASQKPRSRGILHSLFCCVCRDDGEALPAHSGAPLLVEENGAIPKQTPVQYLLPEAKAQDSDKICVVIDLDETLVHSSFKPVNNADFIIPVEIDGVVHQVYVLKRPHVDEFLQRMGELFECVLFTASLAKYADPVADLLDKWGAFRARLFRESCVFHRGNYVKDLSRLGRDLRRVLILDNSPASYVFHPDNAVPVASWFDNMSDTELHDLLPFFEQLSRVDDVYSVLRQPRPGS

[5] = target: DNA topoisomerase (Yersinia pestis, UniProt A0A2S9PM60); assay: Yersinia topoisomerase I cleavage product accumulation – biochemical, cherry-pick, dose response (AID 588525)
[6] = target: Low molecular weight phosphotyrosine protein phosphatase (Homo sapiens, UniProt P24666); format: functional; conditions: read-out: IC50_Mean;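 note: Dose-response confirmation assay measuring inhibition of LMPTP enzyme activity by fluorescence intensity read-out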
[7] = Luminescence Cell-Based Dose Retest to Confirm Inhibitors of Cancer Stem Cells. [Related pubchem assays (depositor defined):AID2717, AID2721]; format: functional; conditions: Homo sapiens
[8] = NIH3T3 cell viability loss, ATP content – CellTiter-Glo luminescence, cherry-pick, set 2, cytotoxicity control for HSP40 inhibitor project, dose response (AID 624265); format: functional
[9] = target: T2, Microphthalmia-associated transcription factor (Homo sapiens, UniProt O75030); assay: reducers of TRPM1 reporter luminescence, concentration series – cell-based, SK-MEL-5, cherry-picked, set 3, MITF inhibitor project, dose response (AID 493073); format: functional;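 note: SK-MEL-5 melanoma cells with luciferase driven by the MITF target TRPM1 promoter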
T2 sequence (O75030 whole entry): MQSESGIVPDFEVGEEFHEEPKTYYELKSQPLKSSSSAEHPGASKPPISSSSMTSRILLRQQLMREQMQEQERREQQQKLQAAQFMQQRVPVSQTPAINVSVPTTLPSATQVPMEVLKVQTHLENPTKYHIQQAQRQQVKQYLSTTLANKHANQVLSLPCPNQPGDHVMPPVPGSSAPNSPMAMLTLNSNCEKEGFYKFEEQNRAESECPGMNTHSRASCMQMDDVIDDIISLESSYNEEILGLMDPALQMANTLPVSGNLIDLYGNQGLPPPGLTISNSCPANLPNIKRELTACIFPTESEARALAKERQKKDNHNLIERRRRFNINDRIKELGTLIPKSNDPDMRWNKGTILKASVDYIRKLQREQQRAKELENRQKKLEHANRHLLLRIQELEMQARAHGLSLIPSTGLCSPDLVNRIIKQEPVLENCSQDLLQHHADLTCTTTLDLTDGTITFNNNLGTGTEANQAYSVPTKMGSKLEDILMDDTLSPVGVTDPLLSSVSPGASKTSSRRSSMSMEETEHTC

[10] = test system: A-375; assay: proliferation inhibition in MITF-low A375 cells – cell-based, cherry-pick samples, set 2, counter-screen for MITF modulator project, dose response (AID 540335); format: functional; conditions: Homo sapiens
[11] = target: T3, Heat shock factor protein 1 (Mus musculus, UniProt P38532); assay: decrease of HSF1-responsive luciferase luminescence – cell-based, NIH3T3, dose retest, confirmation (AID 2382); format: functional;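 note: NIH3T3 fibroblasts with HSF1-driven luciferase reporter stressed by proteasome inhibitor MG132; luminescence from HSF1-driven luciferase expression after 8 hours of MG132 stress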
T3 sequence (P38532 whole entry): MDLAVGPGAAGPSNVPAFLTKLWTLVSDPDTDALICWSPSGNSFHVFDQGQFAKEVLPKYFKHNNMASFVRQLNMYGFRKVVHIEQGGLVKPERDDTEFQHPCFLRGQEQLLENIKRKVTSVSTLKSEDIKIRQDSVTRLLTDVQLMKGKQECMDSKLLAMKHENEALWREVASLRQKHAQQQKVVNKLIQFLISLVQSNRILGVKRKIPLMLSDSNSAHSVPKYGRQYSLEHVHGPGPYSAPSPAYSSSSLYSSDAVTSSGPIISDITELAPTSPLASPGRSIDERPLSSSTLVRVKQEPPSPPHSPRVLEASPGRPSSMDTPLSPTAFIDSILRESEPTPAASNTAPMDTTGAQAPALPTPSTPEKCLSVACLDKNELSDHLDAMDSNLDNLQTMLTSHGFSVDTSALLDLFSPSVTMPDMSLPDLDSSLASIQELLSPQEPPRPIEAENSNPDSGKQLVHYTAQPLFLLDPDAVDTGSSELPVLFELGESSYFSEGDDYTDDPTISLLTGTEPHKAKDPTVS

[12] = test system: A-375; assay: MITF: Counter assay: A375 proliferation Measured in Cell-Based System Using Plate Reader - 2084-03_Inhibitor_Dose_DryPowder_Activity. [Related pubchem assays (depositor defined):AID488944]; format: functional; conditions: Homo sapiens
[13] = target: T4, Sentrin-specific protease 1 (Homo sapiens, UniProt Q9P0U3); assay: SENP1 catalytic domain blockers, concentration series – biochemical, kinetic FRET, dose response (AID 651697); format: functional; conditions: read-out: IC50_Mean
[14] = target: T4, Sentrin-specific protease 1; assay: Dose response confirmation of small molecule inhibitors of the catalytic domain of the SUMO protease, SENP1 in a FRET assay.; format: functional; conditions: read-out: IC50_Mean
[15] = target: Melanocortin receptor 4 (Homo sapiens, UniProt P32245); format: functional, cell-based;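 note: Cell-based assay with luminescence read-out, confirmatory dose-response testing for agonist activity of biased ligands at MC4R; human U2OS cells with tagged receptor and beta-arrestin; potency of agonists that increase receptor coupling to beta-arrestin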
[16] = target: Protein Wnt-3a (Mus musculus, UniProt P27467); assay: antagonism of Wnt3a pathway luciferase reporter – Wnt-LIGHT cells, luminescence, selectivity assay for Gli-SUFU antagonist project, dose response (AID 651570); format: functional; conditions: read-out: IC50_Mean;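 note: Wnt-LIGHT reporter cells stimulated with conditioned medium from Wnt3a-producing cells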
[17] = non-specific 3'UTR reporter inhibition in Clone20-Shn3RL – cell-based, Renilla luciferase, cherry-picked, counter-screen for Shn3 inhibitor project, dose response (AID 624133); format: functional
[18] = loss of viability in HepG2 cells – cell-based, CellTiter-Glo, cherry-picked, cytotoxicity control for Shn3 inhibitor project, dose response (AID 624134); format: functional
[19] = reduction of Shn3 3'UTR-driven luciferase in osteoblasts – cell-based, Clone20 osteoblasts, firefly luciferase, cherry-picked, dose response (AID 624132); format: functional;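 note: firefly luciferase luminescence from reporter carrying the Shn3 3'UTR in osteoblasts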

Chain of Cysteine protease ATG4B (Q9Y4P1 whole entry): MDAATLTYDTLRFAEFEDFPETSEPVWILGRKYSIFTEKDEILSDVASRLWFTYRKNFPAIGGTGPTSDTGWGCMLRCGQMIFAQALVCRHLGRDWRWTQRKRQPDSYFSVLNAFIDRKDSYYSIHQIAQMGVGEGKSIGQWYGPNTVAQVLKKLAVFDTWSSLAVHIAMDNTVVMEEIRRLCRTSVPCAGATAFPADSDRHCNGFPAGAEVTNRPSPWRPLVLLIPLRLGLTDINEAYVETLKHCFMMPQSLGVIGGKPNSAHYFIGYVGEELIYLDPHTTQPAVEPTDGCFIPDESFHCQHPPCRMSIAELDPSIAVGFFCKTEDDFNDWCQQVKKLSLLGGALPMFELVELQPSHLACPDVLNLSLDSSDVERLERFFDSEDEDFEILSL
Chain of Phospholipase A2 (P04054 whole entry): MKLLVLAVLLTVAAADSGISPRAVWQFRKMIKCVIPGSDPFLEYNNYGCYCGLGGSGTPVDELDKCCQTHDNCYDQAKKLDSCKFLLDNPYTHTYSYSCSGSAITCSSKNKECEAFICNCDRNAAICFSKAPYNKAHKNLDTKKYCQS
T4 sequence (Q9P0U3 whole entry, the tested form may be a part): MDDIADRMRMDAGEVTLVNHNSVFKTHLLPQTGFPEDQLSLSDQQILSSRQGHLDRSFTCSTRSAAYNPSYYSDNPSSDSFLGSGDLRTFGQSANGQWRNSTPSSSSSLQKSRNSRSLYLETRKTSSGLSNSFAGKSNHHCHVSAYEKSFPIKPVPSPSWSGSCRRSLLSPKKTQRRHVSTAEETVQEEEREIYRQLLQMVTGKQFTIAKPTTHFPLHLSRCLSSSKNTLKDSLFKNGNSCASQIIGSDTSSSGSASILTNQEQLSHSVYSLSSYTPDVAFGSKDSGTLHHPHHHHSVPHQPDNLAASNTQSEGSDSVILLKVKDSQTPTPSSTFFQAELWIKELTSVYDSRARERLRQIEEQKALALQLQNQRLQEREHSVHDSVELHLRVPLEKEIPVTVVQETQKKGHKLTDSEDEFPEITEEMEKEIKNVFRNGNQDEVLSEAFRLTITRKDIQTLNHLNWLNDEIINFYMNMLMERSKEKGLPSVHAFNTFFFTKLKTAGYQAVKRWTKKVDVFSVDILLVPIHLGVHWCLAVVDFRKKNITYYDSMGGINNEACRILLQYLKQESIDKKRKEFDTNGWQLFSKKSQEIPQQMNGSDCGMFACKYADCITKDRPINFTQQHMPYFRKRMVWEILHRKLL
Chain of Protein Wnt-3a (P27467 whole entry): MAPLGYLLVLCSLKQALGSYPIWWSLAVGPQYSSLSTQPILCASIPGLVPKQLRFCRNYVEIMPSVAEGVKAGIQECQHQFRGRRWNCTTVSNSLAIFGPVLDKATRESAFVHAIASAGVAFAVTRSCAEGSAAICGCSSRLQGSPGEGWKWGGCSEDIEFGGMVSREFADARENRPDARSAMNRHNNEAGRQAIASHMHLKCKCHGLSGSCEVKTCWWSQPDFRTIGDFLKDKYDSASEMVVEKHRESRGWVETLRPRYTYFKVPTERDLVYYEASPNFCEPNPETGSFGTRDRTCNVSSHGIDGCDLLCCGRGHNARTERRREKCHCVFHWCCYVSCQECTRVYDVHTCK
Chain of DNA (cytosine-5)-methyltransferase 1 (P26358 whole entry, the tested form may be a part): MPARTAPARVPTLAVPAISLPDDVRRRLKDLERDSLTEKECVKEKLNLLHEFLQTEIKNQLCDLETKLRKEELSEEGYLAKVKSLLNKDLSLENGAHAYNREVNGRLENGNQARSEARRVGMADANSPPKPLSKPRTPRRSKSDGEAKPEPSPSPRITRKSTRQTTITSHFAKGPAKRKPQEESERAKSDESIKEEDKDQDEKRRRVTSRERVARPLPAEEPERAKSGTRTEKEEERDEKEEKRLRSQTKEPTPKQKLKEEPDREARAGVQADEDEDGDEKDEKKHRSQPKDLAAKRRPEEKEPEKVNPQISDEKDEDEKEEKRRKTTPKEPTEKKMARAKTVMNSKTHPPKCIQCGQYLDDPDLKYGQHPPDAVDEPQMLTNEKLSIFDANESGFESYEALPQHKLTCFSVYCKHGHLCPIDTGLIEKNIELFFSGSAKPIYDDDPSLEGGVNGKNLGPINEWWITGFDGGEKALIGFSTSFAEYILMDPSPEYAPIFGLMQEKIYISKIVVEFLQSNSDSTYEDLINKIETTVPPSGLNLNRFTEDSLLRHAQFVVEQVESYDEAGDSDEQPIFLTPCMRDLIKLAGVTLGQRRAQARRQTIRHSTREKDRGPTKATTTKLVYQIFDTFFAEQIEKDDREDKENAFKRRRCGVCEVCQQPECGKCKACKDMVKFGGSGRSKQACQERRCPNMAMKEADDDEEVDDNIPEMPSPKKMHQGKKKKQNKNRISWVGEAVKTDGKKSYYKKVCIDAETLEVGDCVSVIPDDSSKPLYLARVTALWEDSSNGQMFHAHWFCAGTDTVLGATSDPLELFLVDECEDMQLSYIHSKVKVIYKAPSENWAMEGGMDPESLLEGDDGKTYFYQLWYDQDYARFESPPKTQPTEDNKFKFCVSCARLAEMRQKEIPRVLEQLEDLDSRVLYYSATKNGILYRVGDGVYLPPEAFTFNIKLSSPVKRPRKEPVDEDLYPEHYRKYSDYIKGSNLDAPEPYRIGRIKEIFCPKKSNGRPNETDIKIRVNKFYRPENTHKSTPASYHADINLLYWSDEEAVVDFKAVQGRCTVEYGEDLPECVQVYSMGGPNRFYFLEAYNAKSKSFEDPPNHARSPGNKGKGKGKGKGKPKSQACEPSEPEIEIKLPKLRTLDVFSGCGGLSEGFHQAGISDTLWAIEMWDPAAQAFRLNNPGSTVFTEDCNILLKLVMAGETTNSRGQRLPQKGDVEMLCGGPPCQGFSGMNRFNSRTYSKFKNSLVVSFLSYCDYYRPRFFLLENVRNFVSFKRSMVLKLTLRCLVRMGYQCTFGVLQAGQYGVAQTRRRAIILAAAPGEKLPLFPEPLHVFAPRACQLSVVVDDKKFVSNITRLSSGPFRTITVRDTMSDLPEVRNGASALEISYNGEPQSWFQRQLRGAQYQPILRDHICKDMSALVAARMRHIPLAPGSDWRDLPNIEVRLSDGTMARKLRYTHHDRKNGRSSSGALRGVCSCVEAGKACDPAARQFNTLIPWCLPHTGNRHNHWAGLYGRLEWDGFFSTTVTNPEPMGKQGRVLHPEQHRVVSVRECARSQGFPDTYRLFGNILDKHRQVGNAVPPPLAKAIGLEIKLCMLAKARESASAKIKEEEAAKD
Chain of DNA topoisomerase (A0A2S9PM60 whole entry): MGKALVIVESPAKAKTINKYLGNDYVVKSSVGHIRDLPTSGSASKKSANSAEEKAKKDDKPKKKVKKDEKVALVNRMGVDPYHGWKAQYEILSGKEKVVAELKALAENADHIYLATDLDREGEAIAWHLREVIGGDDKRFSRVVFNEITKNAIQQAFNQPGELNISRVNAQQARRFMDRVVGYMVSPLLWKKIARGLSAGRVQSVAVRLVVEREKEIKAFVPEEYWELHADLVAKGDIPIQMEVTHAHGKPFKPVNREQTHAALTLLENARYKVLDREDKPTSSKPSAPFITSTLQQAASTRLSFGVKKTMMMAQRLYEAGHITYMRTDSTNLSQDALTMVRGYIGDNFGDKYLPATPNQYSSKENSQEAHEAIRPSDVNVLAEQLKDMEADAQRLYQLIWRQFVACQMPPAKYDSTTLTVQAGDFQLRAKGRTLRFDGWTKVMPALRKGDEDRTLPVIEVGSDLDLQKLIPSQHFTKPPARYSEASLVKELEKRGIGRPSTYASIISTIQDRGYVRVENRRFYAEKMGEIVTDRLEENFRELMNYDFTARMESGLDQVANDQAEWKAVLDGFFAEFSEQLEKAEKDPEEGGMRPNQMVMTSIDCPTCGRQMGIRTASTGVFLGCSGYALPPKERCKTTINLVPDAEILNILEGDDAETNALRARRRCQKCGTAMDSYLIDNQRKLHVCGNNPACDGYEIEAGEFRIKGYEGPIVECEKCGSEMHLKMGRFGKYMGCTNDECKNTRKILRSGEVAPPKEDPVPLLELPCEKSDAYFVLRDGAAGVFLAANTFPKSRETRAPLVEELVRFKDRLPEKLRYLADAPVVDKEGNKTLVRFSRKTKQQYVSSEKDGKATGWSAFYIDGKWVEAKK
Chain of Low molecular weight phosphotyrosine protein phosphatase (P24666 whole entry): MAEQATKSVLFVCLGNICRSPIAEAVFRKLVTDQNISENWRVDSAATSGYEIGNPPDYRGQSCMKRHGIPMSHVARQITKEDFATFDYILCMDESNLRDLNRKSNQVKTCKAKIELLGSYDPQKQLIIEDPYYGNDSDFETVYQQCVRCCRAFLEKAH
Chain of Melanocortin receptor 4 (P32245 whole entry): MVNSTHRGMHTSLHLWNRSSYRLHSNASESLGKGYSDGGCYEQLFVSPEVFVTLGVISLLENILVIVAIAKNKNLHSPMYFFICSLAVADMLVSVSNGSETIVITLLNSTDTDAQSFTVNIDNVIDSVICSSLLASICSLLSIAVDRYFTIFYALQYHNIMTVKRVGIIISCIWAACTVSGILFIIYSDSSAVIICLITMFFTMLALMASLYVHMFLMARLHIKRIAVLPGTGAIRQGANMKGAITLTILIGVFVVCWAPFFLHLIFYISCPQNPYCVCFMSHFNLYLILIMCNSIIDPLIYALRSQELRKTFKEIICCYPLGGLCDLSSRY

With `COc1ccc(OC)c(-c2cc(C(=O)N3CCCc4ccccc43)no2)c1` the IC50 [1] was 20.1 µM (inactive) and the IC50 [2] was 14.8 µM (active).

With `Cc1ccc(C(=O)NN2CC(=O)C(c3nc(-c4cccc([N+](=O)[O-])c4)cs3)=C2N)cc1` the IC50 [3] was > 99 µM (inactive) and the IC50 [4] was 4.06 µM (active).

In the case of `Oc1nnc(Cc2ccc(-c3ccc(Cl)cc3)o2)c2ccccc12`, the AC50 [5] is reported as 9.08 µM (active).

With `O=C(COc1ccc2c(-c3ccccc3)cc(=O)oc2c1)Nc1ccc(CCO)cc1` the IC50 [6] was 40.7 µM (inactive).

For `COc1ccc(-c2oc3ccccc3c2C#Cc2cncn2C)cc1`, the AC50 [7] was 2.05 µM (active) and the AbsAC35_uM [8] was 54.48 µM.

In the case of `C=CCNC1=NN=C(c2ccc3c(c2)OCCO3)CS1`, the AC50 [9] is reported as 3.37 µM (active), the AC50 [10] is reported as 48.9 µM (active) and the EC50 [11] is reported as 5.84 µM (active).

With `S=C(NCc1ccccc1)Nc1cccc(Cl)c1` the IC50 [1] was 13.3 µM (active) and the IC50 [2] was 8.8 µM (active).

With `O=[N+]([O-])c1ccc(S(=O)(=O)CC(CN2CCCCC2)N2CCCCC2)cc1` (stereo not drawn) the AC50 [7] was 2.17 µM (active), the AC50 [9] was 4.88 µM (active) and the AC50 [12] was 19.9 µM (active).

With `COc1ccc(-c2ccc3c(c2)S(=O)(=O)c2cccc(C(=O)NCc4cc(C)oc4C(F)(F)F)c2C3=O)cc1OC` the IC50 [13] was 15.8 µM (active), the IC50 [14] was 13.3 µM (active) and the EC50 [15] was > 89.2 µM (inactive).

For `CN(Cc1ccc(OC(F)F)cc1)C(=O)c1cccc(S(=O)(=O)N2CCN(Cc3ccccc3)CC2)c1`, the IC50 [16] was 6.19 µM (active), the AC50 [17] was 2.94 µM (active) and the AC50 [18] was 57.2 µM (active). The AC50 [19] was 2.37 µM (active).
